Activity calls are given as the source filed them. The rule behind the calls is not given here.

For assay [1], the system named is Felis catus. The assay is described as follows: Hypotensive activity in cat following i.v. administration of 1 mg/kg expressed as fall in blood pressure. Format: functional. To be noted: route intravenous.
In assay [2] the test system is Felis catus. As to the kind of experiment: Hypotensive activity in cat following i.v. administration of 5 mg/kg expressed as fall in blood pressure; D denotes death. Format: functional, organism-based. Set-up: dose 5 mg/kg.
The test system of assay [3] is Felis catus. As to the kind of experiment: Hypotensive activity in cat following i.v. administration of 5 mg/kg expressed as fall in blood pressure; NA denotes not active. In kind it is functional, organism-based. Set-up: dose 5 mg/kg. To be noted: at 5 mg/kg.
Assay [4] relates to Felis catus. The assay is described as follows: Duration of hypotensive activity in cat following i.v. administration of 1 mg/kg. To be noted: route intravenous. In kind it is functional.
Assay [5] relates to Felis catus. As to the kind of experiment: Hypotensive activity in cat following i.v. administration of 5 mg/kg expressed as fall in blood pressure. In kind it is functional. To be noted: route intravenous.
Assay [6] deals with Felis catus. As to the kind of experiment: Duration of hypotensive activity in cat following i.v. administration of 5 mg/kg. To be noted: route intravenous. In kind it is functional.
Assay [7] deals with Felis catus. The assay is described as follows: Hypotensive activity in cat following i.v. administration of 1 mg/kg expressed as fall in blood pressure; NA denotes not active. Format: functional, organism-based. Set-up: dose 1 mg/kg. To be noted: for Max effect: at 1 mg/kg.

`CN1CCN(COc2ccc3ccccc3c2)CC1`: in the assay on Felis catus [1], the “Decrease in blood pressure” value is 18 mmHg and the Max effect was 21%. In addition, the “Decrease in blood pressure” value in the assay on Felis catus [2] is listed as “Death”. Moreover, the Max effect entry with Felis catus [3] is “inactive”. The Duration in the assay on Felis catus [4] amounted to 2 min.
For the compound `O=C(O)C(CCOc1cccc2ccccc12)CN1CCN(c2ccccc2)CC1` (stereo not given), the entries for the “Decrease in blood pressure” value in the assay on Felis catus [1] and in the assay on Felis catus [5] were 20 mmHg and 50 mmHg, respectively. The values for the Max effect in the assay on Felis catus [1] and in the assay with Felis catus [5] were 14% and 40%, respectively. For the same compound, the Duration in the assay on Felis catus [4] is given as 2 min; in the assay on Felis catus [6], 7 min.
With `c1ccc(N2CCN(COc3ccc4ccccc4c3)CC2)cc1`, the “Decrease in blood pressure” value in the assay with Felis catus [1] is given as 40 mmHg; in the assay on Felis catus [5], 60 mmHg. The Max effect in the assay with Felis catus [1] was 50%; in the assay with Felis catus [5], 75%. Moreover, the Duration with Felis catus [4] was determined as 16 min; with Felis catus [6], 120 min.
With `O=C(O)C(CCOc1cccc2ccccc12)CN1CCCCC1` (stereo not given), the “Decrease in blood pressure” value in the assay with Felis catus [1] came to 30 mmHg; with Felis catus [5] it was 40 mmHg. For the same compound, the Max effect with Felis catus [1] was 19%; in the assay with Felis catus [5], 47%. The figures for the Duration in the assay on Felis catus [4] and in the assay with Felis catus [6] were 16 min and 50 min, respectively.
For `c1ccc2cc(OCN3CCOCC3)ccc2c1`, in the assay on Felis catus [7], the “Decrease in blood pressure” value was “inactive” and the Max effect entry was “inactive”. Also, in the assay with Felis catus [5], the “Decrease in blood pressure” value amounted to 50 mmHg and the Max effect amounted to 41%. In the assay with Felis catus [6], this compound gave a Duration above 35 min.
For `O=C(O)C(CCOc1cccc2ccccc12)CN1CCOCC1` (stereo not given), the “Decrease in blood pressure” value turned out to be 18 mmHg with Felis catus [1] and 16 mmHg in the assay with Felis catus [5]. Moreover, the Max effect with Felis catus [1] and in the assay on Felis catus [5] was 17% throughout. Further, the Duration in the assay on Felis catus [4] and in the assay on Felis catus [6] was 2 min in each case.
`CN1CCN(CC(CCOc2cccc3ccccc23)C(=O)O)CC1` (stereo not given): the “Decrease in blood pressure” value with Felis catus [1] amounted to 18 mmHg; in the assay on Felis catus [5], 34 mmHg. For the same compound, the Max effect in the assay on Felis catus [1] came to 17%; in the assay with Felis catus [5], 38%. For the same compound, the Duration is on record as 2 min in the assay with Felis catus [4] and 4 min with Felis catus [6].
For the compound `c1ccc2cc(OCN3CCCCC3)ccc2c1`, the “Decrease in blood pressure” value in the assay on Felis catus [1] is given as 20 mmHg; in the assay with Felis catus [5], 44 mmHg. In addition, the figures for the Max effect with Felis catus [1] and in the assay with Felis catus [5] were 21% and 52%, respectively. The figures for the Duration in the assay with Felis catus [4] and in the assay with Felis catus [6] were 2 min and 17 min, respectively.
With `O=C(O)C(CCOc1cccc2ccccc12)CN1CCNCC1` (stereo not given), the “Decrease in blood pressure” value is 12 mmHg in the assay on Felis catus [1] and 25 mmHg with Felis catus [5]. Also, the Max effect in the assay with Felis catus [1] was 7%; in the assay with Felis catus [5] it was 19%. The Duration was 12 min in the assay on Felis catus [4] and 7 min in the assay on Felis catus [6].
For the compound `CC(C)NCC(O)COc1cccc2ccccc12` (stereo not given) [PROPRANOLOL], the “Decrease in blood pressure” value was 46 mmHg in the assay on Felis catus [1] and 50 mmHg in the assay with Felis catus [5]. Further, the Max effect came to 35% in the assay on Felis catus [1] and 41% in the assay with Felis catus [5]. Moreover, the values for the Duration with Felis catus [4] and with Felis catus [6] were 40 min and above 60 min, respectively.
On to `c1ccc2cc(OCN3CCCC3)ccc2c1`, for which the “Decrease in blood pressure” value turned out to be 12 mmHg with Felis catus [1] and 30 mmHg with Felis catus [5]. The Max effect with Felis catus [1] turned out to be 7%; in the assay with Felis catus [5], 19%. In addition, the Duration is 10 min in the assay with Felis catus [4] and 16 min in the assay on Felis catus [6].
Consider `c1ccc2cc(OCN3CCNCC3)ccc2c1`, for which, in the assay on Felis catus [7], the “Decrease in blood pressure” value was “inactive” and the Max effect result is “inactive”. In addition, in the assay with Felis catus [5], the “Decrease in blood pressure” value came out at 10 mmHg and the Max effect stood at 7%. In addition, in the assay with Felis catus [6], the Duration was 2 min.
`O=C(O)C(CCOc1cccc2ccccc12)CN1CCCC1` (stereo not given): the entries for the “Decrease in blood pressure” value in the assay with Felis catus [1] and with Felis catus [5] were 10 mmHg and 20 mmHg, respectively. Moreover, the Max effect was found to be 8% in the assay with Felis catus [1] and 17% with Felis catus [5]. Besides, the Duration in the assay on Felis catus [4] amounted to 2 min; in the assay on Felis catus [6], 30 min.
